Assay results reported in PubChem BioAssay (NCI).
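Assay format: 96-well plates, 48-hour exposure. TGI: concentration producing complete growth inhibition.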

Key:
Experiment in all cases: inhibition of tumour cell growth, NCI panel, 48 h
CCRF-CEM leukemia = test system: CCRF-CEM leukemia
A498 renal = test system: A498 renal
EKVX NSCLC = test system: EKVX NSCLC
LXFL 529 NSCLC = test system: LXFL 529 NSCLC
SR leukemia = test system: SR leukemia
SF-539 CNS = test system: SF-539 CNS
HOP-92 NSCLC = test system: HOP-92 NSCLC
SK-MEL-28 melanoma = test system: SK-MEL-28 melanoma
M19-MEL melanoma = test system: M19-MEL melanoma
OVCAR-4 ovarian = test system: OVCAR-4 ovarian
SNB-78 CNS = test system: SNB-78 CNS
KM12 colon = test system: KM12 colon
SNB-75 CNS = test system: SNB-75 CNS
NCI-H522 lung = test system: NCI-H522 lung
HCT-116 colon = test system: HCT-116 colon
COLO 205 colon = test system: COLO 205 colon
OVCAR-8 ovarian = test system: OVCAR-8 ovarian
KM20L2 colon = test system: KM20L2 colon
HT29 colon = test system: HT29 colon
IGROV1 ovarian = test system: IGROV1 ovarian
UACC-257 melanoma = test system: UACC-257 melanoma
HCT-15 colon = test system: HCT-15 colon
ACHN renal = test system: ACHN renal
SW-620 colon = test system: SW-620 colon
SK-OV-3 ovarian = test system: SK-OV-3 ovarian
OVCAR-3 ovarian = test system: OVCAR-3 ovarian
TK-10 renal = test system: TK-10 renal
XF 498 CNS = test system: XF 498 CNS
DLD-1 colon = test system: DLD-1 colon
SF-268 CNS = test system: SF-268 CNS
HOP-62 NSCLC = test system: HOP-62 NSCLC
UACC-62 melanoma = test system: UACC-62 melanoma
OVCAR-5 ovarian = test system: OVCAR-5 ovarian
SK-MEL-2 melanoma = test system: SK-MEL-2 melanoma
M14 melanoma = test system: M14 melanoma
SF-295 CNS = test system: SF-295 CNS
DMS 273 small cell lung = test system: DMS 273 small cell lung
MALME-3M melanoma = test system: MALME-3M melanoma
UO-31 renal = test system: UO-31 renal
SN12C renal = test system: SN12C renal
SK-MEL-5 melanoma = test system: SK-MEL-5 melanoma
RPMI-8226 leukemia = test system: RPMI-8226 leukemia
A549 NSCLC = test system: A549 NSCLC
SNB-19 CNS = test system: SNB-19 CNS
CAKI-1 renal = test system: CAKI-1 renal
RXF 393 renal = test system: RXF 393 renal
NCI-H23 lung = test system: NCI-H23 lung
HCC-2998 colon = test system: HCC-2998 colon
U251 CNS = test system: U251 CNS
HL-60(TB) leukemia = test system: HL-60(TB) leukemia
K-562 leukemia = test system: K-562 leukemia
DMS 114 small cell lung = test system: DMS 114 small cell lung
MOLT-4 leukemia = test system: MOLT-4 leukemia
NCI-H226 lung = test system: NCI-H226 lung
NCI-H460 lung = test system: NCI-H460 lung
LOX IMVI melanoma = test system: LOX IMVI melanoma

SMILES: CCCCCCCCC[C@@H]1C[C@H](O)[C@H](Cc2ccccc2)N1C(=O)OC(C)(C)C
- TGI (CCRF-CEM leukemia): 55.9 µM
- TGI (A498 renal): 33.7 µM
- TGI (EKVX NSCLC): 33.5 µM
- TGI (LXFL 529 NSCLC): 30.9 µM
- TGI (SR leukemia): 46.2 µM
- TGI (SF-539 CNS): 37.2 µM
- TGI (HOP-92 NSCLC): 28.9 µM
- TGI (SK-MEL-28 melanoma): 34.9 µM
- TGI (M19-MEL melanoma): 30.9 µM
- TGI (OVCAR-4 ovarian): 33 µM
- TGI (SNB-78 CNS): 41.3 µM
- TGI (KM12 colon): 35.2 µM
- TGI (SNB-75 CNS): 38.1 µM
- TGI (NCI-H522 lung): 30 µM
- TGI (HCT-116 colon): 31.9 µM
- TGI (COLO 205 colon): 31.1 µM
- TGI (OVCAR-8 ovarian): 34.3 µM
- TGI (KM20L2 colon): 34.5 µM
- TGI (HT29 colon): 31.5 µM
- TGI (IGROV1 ovarian): 33.3 µM
- TGI (UACC-257 melanoma): 30.6 µM
- TGI (HCT-15 colon): 33.9 µM
- TGI (ACHN renal): 30.8 µM
- TGI (SW-620 colon): 38.4 µM
- TGI (SK-OV-3 ovarian): 39 µM
- TGI (OVCAR-3 ovarian): 34.6 µM
- TGI (TK-10 renal): 29.2 µM
- TGI (XF 498 CNS): 37 µM
- TGI (DLD-1 colon): 33.8 µM
- TGI (SF-268 CNS): 34.6 µM
- TGI (HOP-62 NSCLC): 34.9 µM
- TGI (UACC-62 melanoma): 33.3 µM
- TGI (OVCAR-5 ovarian): 28.5 µM
- TGI (SK-MEL-2 melanoma): 30.3 µM
- TGI (M14 melanoma): 38.4 µM
- TGI (SF-295 CNS): 30.1 µM
- TGI (DMS 273 small cell lung): 32.8 µM
- TGI (MALME-3M melanoma): 34.5 µM
- TGI (UO-31 renal): 27.4 µM
- TGI (SN12C renal): 31 µM
- TGI (SK-MEL-5 melanoma): 33.1 µM
- TGI (RPMI-8226 leukemia): 63.3 µM
- TGI (A549 NSCLC): 32.6 µM
- TGI (SNB-19 CNS): 33.5 µM
- TGI (CAKI-1 renal): 38.2 µM
- TGI (RXF 393 renal): 32.2 µM
- TGI (NCI-H23 lung): 31.6 µM
- TGI (HCC-2998 colon): 27.8 µM
- TGI (U251 CNS): 30.2 µM
- TGI (HL-60(TB) leukemia): 48.7 µM
- TGI (K-562 leukemia): > 100 µM
- TGI (DMS 114 small cell lung): 32.4 µM
- TGI (MOLT-4 leukemia): > 100 µM

SMILES: O=c1n(CC2CO2)c2ccccc2n1CC1CS1 (centres undefined)
- TGI (NCI-H226 lung): > 100 µM
- TGI (CCRF-CEM leukemia): > 100 µM
- TGI (EKVX NSCLC): > 100 µM
- TGI (LXFL 529 NSCLC): > 100 µM
- TGI (SR leukemia): > 100 µM
- TGI (SF-539 CNS): > 100 µM
- TGI (HOP-92 NSCLC): > 100 µM
- TGI (SK-MEL-28 melanoma): > 100 µM
- TGI (M19-MEL melanoma): > 100 µM
- TGI (OVCAR-4 ovarian): > 100 µM
- TGI (KM12 colon): > 100 µM
- TGI (NCI-H522 lung): > 100 µM
- TGI (HCT-116 colon): > 100 µM
- TGI (COLO 205 colon): > 100 µM
- TGI (OVCAR-8 ovarian): > 100 µM
- TGI (KM20L2 colon): > 100 µM
- TGI (IGROV1 ovarian): > 100 µM
- TGI (HCT-15 colon): > 100 µM
- TGI (ACHN renal): > 100 µM
- TGI (SW-620 colon): > 100 µM
- TGI (OVCAR-3 ovarian): > 100 µM
- TGI (TK-10 renal): > 100 µM
- TGI (XF 498 CNS): > 100 µM
- TGI (NCI-H460 lung): > 100 µM
- TGI (SF-268 CNS): > 100 µM
- TGI (HOP-62 NSCLC): > 100 µM
- TGI (UACC-62 melanoma): > 100 µM
- TGI (OVCAR-5 ovarian): > 100 µM
- TGI (SK-MEL-2 melanoma): > 100 µM
- TGI (LOX IMVI melanoma): > 100 µM
- TGI (M14 melanoma): > 100 µM
- TGI (SF-295 CNS): > 100 µM
- TGI (DMS 273 small cell lung): > 100 µM
- TGI (MALME-3M melanoma): > 100 µM
- TGI (UO-31 renal): > 100 µM
- TGI (SN12C renal): > 100 µM
- TGI (RPMI-8226 leukemia): > 100 µM
- TGI (A549 NSCLC): > 100 µM
- TGI (SNB-19 CNS): > 100 µM
- TGI (CAKI-1 renal): > 100 µM
- TGI (RXF 393 renal): > 100 µM
- TGI (HCC-2998 colon): > 100 µM
- TGI (HL-60(TB) leukemia): 87.7 µM
- TGI (K-562 leukemia): > 100 µM
- TGI (DMS 114 small cell lung): > 100 µM
- TGI (MOLT-4 leukemia): > 100 µM
